From patent US8349791B2, “Polypeptides that bind membrane proteins” (The Trustees of the University of Pennsylvania, priority 2006, dated 2013) come the findings set out here.

Peptide text beside a SMILES is read from it.

The test system of experiment [1] is gel-filtered human platelets. Nature of the experiment: Platelet aggregation, turbidometric. In kind it is cell-based. The method, then: Platelet-rich plasma, prepared from human blood anti-coagulated with 0.1 volume of 0.13 M sodium citrate, was gel-filtered on Sepharose 2B (Amersham Biosciences, Piscataway, N.J.) using an elution buffer containing 137 mM NaCl, 2.7 mM KCl, 1 mM MgCl2, 5.6 mM glucose, 0.35 mg/ml bovine serum albumin, 3.3 mM NaH2PO4, and 4 mM HEPES (pH=7.4), as previously described. Jordan P et al. Nature 411, 909-917 (2001). Turbidometric measurements of platelet aggregation were performed in a Chrono-Log Lumi-Dual Aggregometer. Aliquots (0.4 ml) of the gel-filtered platelet suspension were supplemented with 200 μg/ml human fibrinogen (Enzyme Research Labs., South Bend, Ind.) and 1 mM CaCl2 (final concentrations) prior to adding platelet agonists. The polypeptide was added from a DMSO solution such that the final concentration of DMSO was no greater than 0.5%. All controls also had 0.5% DMSO in the buffer.

Experiment [2] concerns the target T1, CHO cells expressing αIIbβ3 (Homo sapiens, UniProt P08514).
T1 construct: expressed in transfected cells; host or cells: CHO cells
Nature of the experiment: Force spectroscopy (laser tweezers), CHO cells and fibrinogen-coated beads. The class given is cell-based, Chinese hamster. As to conditions: 0.5 μM polypeptide. The source says: Litvinov R I et al. Proc. Natl. Acad. Sci. USA. 99, 7426-31 (2002). Recombinant human OPN, prepared as previously described (Bennett J S et al. J. Biol. Chem. 272, 8137-40 (1997)) or purified human fibrinogen was covalently bound to 0.93 μm carboxylate-modified latex beads. Individual cells, trapped from a suspension of gel filtered human platelets or CHO cells, were manually attached to 5 μm diameter silica pedestals coated with polylysine. An OPN- or fibrinogen-coated bead, trapped by the laser light, was then brought into proximity of an immobilized cell, oscillated at 50 Hz, and then brought into repeated intermittent contact with the cell by micromanipulation. Data collection was initiated at the first contact between the bead and the cell. Rupture forces following repeated contacts were collected for periods of several seconds to one minute. Individual forces measured during each contact-detachment cycle were collected into 10 pN-wide bins. The number of events in each bin was then plotted against the average force for that bin after normalizing for the total number of interaction cycles. Thus, the percentage of events in a particular force range (bin) represents the probability of rupture events at that tension. […] Therefore, rupture forces in this range were not considered when the data were analyzed. […]

Experiment [3] has as its target T2, αVβ3 (Homo sapiens, UniProt P06756).
T2 construct: Platelets express a second integrin with a β3 subunit, αVβ3; endogenous in cells; host or cells: gel-filtered human platelets
Nature of the experiment: Platelet adhesion to immobilized osteopontin. In kind it is cell-based. The method, then: The integrin αVβ3 mediates adhesion of platelets to the matrix protein osteopontin, potentially exposed to the circulating blood by rupture of an atherosclerotic plaque. […] The potency of anti-αv in inducing platelet adhesion to osteopontin was approximately 10-fold lower than that of anti-αIIb in inducing platelet aggregation (FIG. 11). Adhesion of platelets in 100 μl aliquots of gel-filtered human platelets to immobilized osteopontin was induced by the indicated concentrations of anti-αV, either alone or in the presence of the calcium chelator 2.5 mM EDTA or the global platelet signal transduction inhibitor 2 μM PGE1. Platelets stimulated by 20 μM ADP served as a positive control. Platelet adhesion was quantitated using a colorimetric assay based on measurement of platelet acid phosphatase activity. The data shown in FIG. 11 are the mean and standard error of measurements made in triplicate. Anti-αV-induced adhesion was prevented by agents that inhibit the interaction of αVβ3's extracellular ligand-binding site with osteopontin, including EDTA or the specific RGD-containing αVβ3 antagonist XJ735, confirming that anti-αV induced platelet adhesion to osteopontin is mediated by αVβ3.
Platelet adhesion to osteopontin was measured as previously described. See Fleming K G J. Mol. Biol. 323, 563-571 (2002). Briefly, 96-well flat bottom microtiter plates (Immulon 2, Dynatech, Chantilly Va.) were coated with 5 μg/ml of recombinant osteopontin dissolved in 50 mM NaHCO3 buffer, pH 8.0, containing 150 mM NaCl. Unoccupied protein binding sites on the wells were blocked with 5 mg/ml bovine serum albumin dissolved in the same buffer. One hundred μl aliquots of a gel-filtered platelet suspension containing ≈2-5×10^6 platelets were added to the protein-coated wells in the absence or presence of anti-αV or ADP. Following an incubation for 30 min at 37° C. without agitation, the plates were washed four times and the number of adherent platelets measured using a colorimetric assay that measure platelet acid phosphatase activity. The polypeptide was added from a DMSO solution such that the final concentration of DMSO was no greater than 0.5%. All controls also had 0.5% DMSO in the buffer.

T2 sequence (P06756 891-1048 limits assumed): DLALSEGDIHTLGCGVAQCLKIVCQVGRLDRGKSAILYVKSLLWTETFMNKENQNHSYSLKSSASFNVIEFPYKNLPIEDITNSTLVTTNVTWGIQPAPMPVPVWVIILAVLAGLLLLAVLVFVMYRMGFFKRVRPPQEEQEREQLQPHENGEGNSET
T2 sequence (P06756 31-889 partner limits assumed): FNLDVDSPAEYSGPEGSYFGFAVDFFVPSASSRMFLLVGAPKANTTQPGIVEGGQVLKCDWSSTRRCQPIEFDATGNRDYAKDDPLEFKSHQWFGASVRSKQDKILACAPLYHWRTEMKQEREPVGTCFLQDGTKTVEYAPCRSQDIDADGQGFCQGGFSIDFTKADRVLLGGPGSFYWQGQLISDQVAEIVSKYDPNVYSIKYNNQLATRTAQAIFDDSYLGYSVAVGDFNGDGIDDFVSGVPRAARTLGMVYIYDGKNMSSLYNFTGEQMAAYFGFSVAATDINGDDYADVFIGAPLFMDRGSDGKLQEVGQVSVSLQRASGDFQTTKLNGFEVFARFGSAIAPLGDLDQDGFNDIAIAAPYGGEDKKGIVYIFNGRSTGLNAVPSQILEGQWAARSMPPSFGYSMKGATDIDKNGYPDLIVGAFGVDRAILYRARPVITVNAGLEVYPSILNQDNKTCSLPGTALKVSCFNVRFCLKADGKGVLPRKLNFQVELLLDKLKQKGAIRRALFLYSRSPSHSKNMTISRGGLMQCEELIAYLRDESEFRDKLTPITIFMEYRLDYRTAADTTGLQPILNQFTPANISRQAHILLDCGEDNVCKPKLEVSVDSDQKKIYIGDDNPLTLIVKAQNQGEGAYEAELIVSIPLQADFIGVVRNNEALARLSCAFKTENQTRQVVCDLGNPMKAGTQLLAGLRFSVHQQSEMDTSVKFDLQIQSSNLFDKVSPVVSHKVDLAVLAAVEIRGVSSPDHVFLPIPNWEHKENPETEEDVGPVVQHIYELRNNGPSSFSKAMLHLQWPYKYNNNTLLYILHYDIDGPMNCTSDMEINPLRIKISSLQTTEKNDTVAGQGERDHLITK
T2 sequence (P05106 27-788 partner): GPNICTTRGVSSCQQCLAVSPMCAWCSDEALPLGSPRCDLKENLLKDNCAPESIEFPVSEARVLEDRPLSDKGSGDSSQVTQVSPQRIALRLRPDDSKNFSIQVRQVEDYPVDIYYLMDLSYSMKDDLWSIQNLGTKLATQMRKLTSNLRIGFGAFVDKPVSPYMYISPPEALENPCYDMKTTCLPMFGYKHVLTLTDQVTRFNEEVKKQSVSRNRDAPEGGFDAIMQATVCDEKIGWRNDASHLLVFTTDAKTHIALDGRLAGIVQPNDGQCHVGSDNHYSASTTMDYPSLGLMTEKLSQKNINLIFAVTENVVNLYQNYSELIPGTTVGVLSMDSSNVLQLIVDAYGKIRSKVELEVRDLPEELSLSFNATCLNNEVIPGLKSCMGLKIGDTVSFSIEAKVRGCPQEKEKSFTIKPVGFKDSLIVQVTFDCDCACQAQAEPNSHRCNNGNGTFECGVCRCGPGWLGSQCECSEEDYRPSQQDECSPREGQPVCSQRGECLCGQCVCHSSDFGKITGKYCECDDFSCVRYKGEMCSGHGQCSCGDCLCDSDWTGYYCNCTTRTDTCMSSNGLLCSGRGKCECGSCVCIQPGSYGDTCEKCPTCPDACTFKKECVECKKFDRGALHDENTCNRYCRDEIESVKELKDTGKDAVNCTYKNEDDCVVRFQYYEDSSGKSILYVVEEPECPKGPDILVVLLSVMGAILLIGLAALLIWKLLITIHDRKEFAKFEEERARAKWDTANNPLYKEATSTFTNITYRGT
T1 sequence (P08514 891-1039 limits assumed): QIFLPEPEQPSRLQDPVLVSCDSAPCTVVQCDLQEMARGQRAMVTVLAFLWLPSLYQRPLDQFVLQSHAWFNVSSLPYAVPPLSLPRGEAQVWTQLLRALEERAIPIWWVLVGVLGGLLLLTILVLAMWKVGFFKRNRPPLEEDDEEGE
T1 sequence (P08514 32-887 partner limits assumed): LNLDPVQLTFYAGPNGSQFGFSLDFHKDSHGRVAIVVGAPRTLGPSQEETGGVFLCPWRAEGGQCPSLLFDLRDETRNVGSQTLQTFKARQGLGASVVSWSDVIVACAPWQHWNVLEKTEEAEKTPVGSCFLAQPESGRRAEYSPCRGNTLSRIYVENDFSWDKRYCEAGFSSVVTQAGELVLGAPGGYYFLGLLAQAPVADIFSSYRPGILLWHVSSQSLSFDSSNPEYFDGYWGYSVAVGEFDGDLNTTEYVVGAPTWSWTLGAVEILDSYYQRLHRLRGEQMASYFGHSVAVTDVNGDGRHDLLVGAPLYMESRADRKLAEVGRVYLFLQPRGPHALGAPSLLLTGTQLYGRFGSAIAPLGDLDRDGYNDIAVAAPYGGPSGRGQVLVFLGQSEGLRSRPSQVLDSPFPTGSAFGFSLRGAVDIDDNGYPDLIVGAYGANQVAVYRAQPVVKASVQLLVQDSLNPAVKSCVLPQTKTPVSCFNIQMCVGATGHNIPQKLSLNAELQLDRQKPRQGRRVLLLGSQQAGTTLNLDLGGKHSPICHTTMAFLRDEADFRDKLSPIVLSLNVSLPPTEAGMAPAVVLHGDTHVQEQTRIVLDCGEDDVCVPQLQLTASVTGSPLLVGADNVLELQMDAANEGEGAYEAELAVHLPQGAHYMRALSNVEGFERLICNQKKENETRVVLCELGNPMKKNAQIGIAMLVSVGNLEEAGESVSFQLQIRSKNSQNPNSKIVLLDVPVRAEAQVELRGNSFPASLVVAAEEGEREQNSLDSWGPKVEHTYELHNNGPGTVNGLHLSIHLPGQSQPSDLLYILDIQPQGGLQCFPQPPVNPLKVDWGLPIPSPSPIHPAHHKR
T1 sequence (P05106 27-788 partner): as the sequence (P05106 27-788 partner) above

`CC[C@H](C)[C@H](NC(=O)[C@H](Cc1ccccc1)NC(=O)[C@H](Cc1ccccc1)NC(=O)[C@@H]1CCCN1C(=O)[C@H](CC(C)C)NC(=O)[C@H](CC(C)C)NC(=O)[C@H](CCSC)NC(=O)[C@@H](NC(=O)[C@H](Cc1ccc(O)cc1)NC(=O)[C@H](C)NC(=O)[C@H](CCCCN)NC(=O)[C@@H](N)CCCCN)C(C)C)C(=O)NCC(=O)N[C@@H](CC(C)C)C(=O)N[C@@H](CC(C)C)C(=O)N[C@@H](CC(C)C)C(=O)NCC(=O)N[C@@H](CC(C)C)C(=O)N[C@H](C(=O)N[C@@H](Cc1ccccc1)C(=O)NCC(=O)NCC(=O)N[C@@H](C)C(=O)N[C@@H](Cc1ccccc1)C(=O)N[C@@H](Cc1c[nH]c2ccccc12)C(=O)NCC(=O)N1CCC[C@H]1C(=O)N[C@@H](C)C(=O)N[C@@H](CCCNC(=N)N)C(=O)N[C@@H](Cc1c[nH]cn1)C(=O)N[C@@H](CC(C)C)C(=O)N[C@@H](CCCCN)C(=O)N[C@@H](CCCCN)C(N)=O)[C@@H](C)CC` [anti-αIIb] (H-KKAYVMLLPFFIGLLLGLIFGGAFWGPARHLKK-NH2; N-terminus assumed): in experiment [1] (1 μM peptide, 2 μM PGE1, 10 units/ml apyrase), the “induced aggregation in the presence of PGE1 and apyrase” value is given as “only minimally affected”. In experiment [1] (agents that directly target αIIbβ3), the “induced aggregation in the presence of EDTA, Arg-Gly-Asp-Ser or antibody A2A9” value was “inhibited”. Further, the “platelet aggregation response” value in experiment [1] (gel-filtered human platelets) was “highly active”. Moreover, in experiment [2], the “rupture force between CHO cells expressing αIIbβ3 and fibrinogen-coated beads” value was “peak of rupture force identical to that seen when platelets were incubated with ADP”. Moreover, the “rupture force peak after pre-incubation of CHO cells with abciximab” value in experiment [2] (abciximab 200 μg/ml) is “not present”.
On to AYVFILLSFILGTLLGFLVMFWA [anti-αV], for which the “potency in inducing platelet adhesion to osteopontin, lower than that of anti-αIIb in inducing platelet aggregation” value in experiment [3] is recorded as “approximately 10 fold”. Moreover, in experiment [3] (2 μM PGE1), the “induced adhesion after pre-incubating the platelets with PGE1” value is on record as “only minimally affected”. Besides, in experiment [3] (2.5 mM EDTA), the “induced adhesion in the presence of EDTA or αVβ3 antagonist XJ735” value is “prevented”. Besides, the “platelet adhesion to osteopontin” value in experiment [3] (absence of pharmacological platelet agonists) is on record as “induced robust platelet adhesion to osteopontin”.
